From patent publication US9167821B2 (priority 2009, dated 2015)
Structures can show the parent of a compound that is named as a salt.

Assay: physchem
From the text: The determination is effected in the acidic range at pH 2.3 using 0.1% aqueous phosphoric acid and acetonitrile as eluents; linear gradient from 10% acetonitrile to 95% acetonitrile. • ^[b] The LC-MS determination in the acidic range is effected at pH 2.7 using 0.1% aqueous formic acid and acetonitrile (contains 0.1% formic acid) as eluents; linear gradient from 10% acetonitrile to 95% acetonitrile. • ^[c] The LC-MS determination in the neutral range is effected at pH 7.8 using 0.001 molar aqueous ammonium hydrogencarbonate solution and acetonitrile as eluents; linear gradient from 10% acetonitrile to 95% acetonitrile.
The calibration is effected with unbranched alkan-2-ones (having 3 to 16 carbon atoms) with known log P values (determination of the log P values using the retention times by linear interpolation between two successive alkanones).

| Compound | chromatographic logP (pH 2.7, log P (HCOOH)) | chromatographic logP (pH 2.7, logp [b]) | other results |
| --- | --- | --- | --- |
| CC(C)(C)OC(=O)N1CCC(c2nc(C3=NOC(c4ccccc4NS(C)(=O)=O)C3)cs2)CC1 (stereo not shown) [X-a-4, tert-Butyl 4-[4-(5-{2-[(methylsulphonyl)amino]phenyl}-4,5-dihydro-1,2-oxazol-3-yl)-1,3-thiazol-2-yl]piperidine-1-carboxylate] | 3 | – | – |
| O=Cc1csc(C2CCN(C(=O)Cn3nc(C(F)F)cc3C(F)F)CC2)n1 [VI-2, 2-(1-{[3,5-Bis(difluoromethyl)-1H-pyrazol-1-yl]acetyl}piperidin-4-yl)-1,3-thiazole-4-carbaldehyde] | 1.93 | – | – |
| c1ccc(C2CC(c3csc(C4CCNCC4)n3)=NO2)c(OCC2CCCCC2)c1 (stereo not shown) [XII-7, 4-(4-{5-[2-(Cyclohexylmethoxy)phenyl]-4,5-dihydro-1,2-oxazol-3-yl}-1,3-thiazol-2-yl)piperidinium chloride] | – | – | chromatographic logP (pH 2.7, log P (pH2.7)): 1.9 |
| O=[N+]([O-])c1ccccc1C1CC(c2csc(C3CCNCC3)n2)=NO1 (stereo not shown) [XII-6, 4-{4-[5-(2-Nitrophenyl)-4,5-dihydro-1,2-oxazol-3-yl]-1,3-thiazol-2-yl}piperidinium chloride] | – | – | chromatographic logP (pH 2.7, log P (pH2.7)): 1.09 |
| C#CCOc1cccc(Cl)c1C1CC(c2csc(C3CCN(C(=O)Cn4nc(C(F)F)cc4C(F)F)CC3)n2)=NO1 (stereo not shown) [I-49, 2-[3,5-bis(difluoromethyl)-1H-pyrazol-1-yl]-1-[4-(4-{5-[2-chloro-6-(prop-2-yn-1-yloxy)phenyl]-4,5-dihydro-1,2-oxazol-3-yl}-1,3-thiazol-2-yl)piperidin-1-yl]ethanone] | – | 3.5 | chromatographic logP (pH 7.8, logp [c]): 3.34 |
| O=C(OCC1CC1)c1ccccc1C1CC(c2csc(C3CCN(C(=O)Cn4nc(C(F)F)cc4C(F)F)CC3)n2)=NO1 (stereo not shown) [I-13, Cyclopropylmethyl 2-{3-[2-(1-{[3,5-bis(difluoromethyl)-1H-pyrazol-1-yl]acetyl}piperidin-4-yl)-1,3-thiazol-4-yl]-4,5-dihydro-1,2-oxazol-5-yl}benzoate] | – | 3.99 | chromatographic logP (pH 7.8, logp [c]): 3.92 |
| CS(=O)(=O)Nc1ccccc1C1CC(c2csc(C3CCNCC3)n2)=NO1 (stereo not shown) [XII-4, 4-[4-(5-{2-[(Methylsulphonyl)amino]phenyl}-4,5-dihydro-1,2-oxazol-3-yl)-1,3-thiazol-2-yl]piperidinium chloride] | 0.72 | – | – |
| CC(=O)c1ccccc1C1CC(c2csc(C3CCNCC3)n2)=NO1 (stereo not shown) [XII-2, 1-(2-{3-[2-(Piperidin-4-yl)-1,3-thiazol-4-yl]-4,5-dihydro-1,2-oxazol-5-yl}phenyl)ethanone hydrochloride] | 0.96 | – | – |
| COC(=O)c1ccccc1C1CC(c2nc(C3CCN(C(=O)Cn4nc(C(F)F)cc4C(F)F)CC3)sc2Cl)=NO1 (stereo not shown) [I-46, methyl 2-{3-[2-(1-{[3,5-bis(difluoromethyl)-1H-pyrazol-1-yl]acetyl}piperidin-4-yl)-5-chloro-1,3-thiazol-4-yl]-4,5-dihydro-1,2-oxazol-5-yl}benzoate] | – | 3.98 | – |
| O=Cc1ccccc1-c1cc(-c2csc(C3CCN(C(=O)Cn4nc(C(F)F)cc4C(F)F)CC3)n2)no1 [I-31, 2-{3-[2-(1-{[3,5-Bis(difluoromethyl)-1H-pyrazol-1-yl]acetyl}piperidin-4-yl)-1,3-thiazol-4-yl]-1,2-oxazol-5-yl}benzaldehyde] | – | 3.25 | – |
| CC(C)(C)OC(=O)N1CCC(F)(c2nc(C=O)cs2)CC1 [VI-1, tert-Butyl 4-fluoro-4-(4-formyl-1,3-thiazol-2-yl)piperidine-1-carboxylate] | 2.8 | – | – |
| C=CCOc1cccc(Cl)c1C1CC(c2csc(C3CCN(C(=O)Cn4nc(C(F)F)cc4C(F)F)CC3)n2)=NO1 (stereo not shown) [I-51, 1-[4-(4-{5-[2-(Allyloxy)-6-chlorophenyl]-4,5-dihydro-1,2-oxazol-3-yl}-1,3-thiazol-2-yl)piperidin-1-yl]-2-[3,5-bis(difluoromethyl)-1H-pyrazol-1-yl]ethanone] | – | 3.82 | chromatographic logP (pH 7.8, logp [c]): 3.71 |
| CC(C)(C)OC(=O)N1CCC(c2nc(C3=NOC(c4ccccc4OCC4CCCCC4)C3)cs2)CC1 (stereo not shown) [X-a-7, tert-butyl 4-(4-{5-[2-(cyclohexylmethoxy)phenyl]-4,5-dihydro-1,2-oxazol-3-yl}-1,3-thiazol-2-yl)piperidine-1-carboxylate] | – | – | chromatographic logP (pH 2.7, log P (pH2.7)): 6.3 |
| O=C(NC1CC1)c1ccccc1C1CC(c2csc(C3CCN(C(=O)Cn4nc(C(F)F)cc4C(F)F)CC3)n2)=NO1 (stereo not shown) [I-27, 2-{3-[2-(1-{[3,5-Bis(difluoromethyl)-1H-pyrazol-1-yl]acetyl}piperidin-4-yl)-1,3-thiazol-4-yl]-4,5-dihydro-1,2-oxazol-5-yl}-N-cyclopropylbenzamide] | – | 2.64 | – |
| CCSCc1ccccc1C1CC(c2csc(C3CCN(C(=O)Cn4nc(C(F)F)cc4C(F)F)CC3)n2)=NO1 (stereo not shown) [I-12, 2-[3,5-Bis(difluoromethyl)-1H-pyrazol-1-yl]-1-{4-[4-(5-{2-[(ethylsulphanyl)methyl]phenyl}-4,5-dihydro-1,2-oxazol-3-yl)-1,3-thiazol-2-yl]piperidin-1-yl}ethanone] | – | 3.9 | – |
| CS(=O)(=O)Nc1ccccc1C1CC(c2csc(C3CCN(C(=O)Cn4nc(C(F)F)cc4C(F)F)CC3)n2)=NO1 (stereo not shown) [I-37, N-(2-{3-[2-(1-{[3,5-Bis(difluoromethyl)-1H-pyrazol-1-yl]acetyl}piperidin-4-yl)-1,3-thiazol-4-yl]-4,5-dihydro-1,2-oxazol-5-yl}phenyl)methanesulphonamide] | – | 2.51 | – |
| O=C(Cn1nc(C(F)F)cc1C(F)F)N1CCC(c2nc(C3=NOC(c4ccccc4CCl)C3)cs2)CC1 (stereo not shown) [I-44, 2-[3,5-Bis(difluoromethyl)-1H-pyrazol-1-yl]-1-[4-(4-{5-[2-(chloromethyl)phenyl]-4,5-dihydro-1,2-oxazol-3-yl}-1,3-thiazol-2-yl)piperidin-1-yl]ethanone] | – | 3.36 | – |
| O=C(Cn1nc(C(F)F)cc1C(F)F)N1CCC(c2nc(C3=NOC(c4c(O)cccc4Cl)C3)cs2)CC1 (stereo not shown) [I-54, 2-[3,5-Bis(difluoromethyl)-1H-pyrazol-1-yl]-1-(4-{4-[5-(2-chloro-6-hydroxyphenyl)-4,5-dihydro-1,2-oxazol-3-yl]-1,3-thiazol-2-yl}piperidin-1-yl)ethanone] | 2.94 | 2.94 | – |
| COCCOc1cccc(C2CC(c3csc(C4CCN(C(=O)Cn5nc(C(F)F)cc5C(F)F)CC4)n3)=NO2)c1 (stereo not shown) [I-28, 2-[3,5-Bis(difluoromethyl)-1H-pyrazol-1-yl]-1-[4-(4-{5-[3-(2-methoxyethoxy)phenyl]-4,5-dihydro-1,2-oxazol-3-yl}-1,3-thiazol-2-yl)piperidin-1-yl]ethanone] | – | 3.03 | chromatographic logP (pH 7.8, logp [c]): 3.04 |
| O=C(Cn1nc(C(F)F)cc1C(F)F)N1CCC(c2nc(C3=NOC(c4ccccc4OCC4CCCCC4)C3)cs2)CC1 (stereo not shown) [I-24, 2-[3,5-Bis(difluoromethyl)-1H-pyrazol-1-yl]-1-[4-(4-{5-[2-(cyclohexylmethoxy)phenyl]-4,5-dihydro-1,2-oxazol-3-yl}-1,3-thiazol-2-yl)piperidin-1-yl]ethanone] | – | – | chromatographic logP (pH 2.3): 4.9; chromatographic logP (pH 7.8): 4.9 |
| COCCOc1cccc(Cl)c1C1CC(c2csc(C3CCN(C(=O)Cn4nc(C(F)F)cc4C(F)F)CC3)n2)=NO1 (stereo not shown) [I-50, 2-[3,5-bis(difluoromethyl)-1H-pyrazol-1-yl]-1-[4-(4-{5-[2-chloro-6-(2-methoxyethoxy)phenyl]-4,5-dihydro-1,2-oxazol-3-yl}-1,3-thiazol-2-yl)piperidin-1-yl]ethanone] | – | 3.36 | – |
| O=C(Cn1nc(C(F)F)cc1C(F)F)N1CCC(c2nc(C3=NOC(c4ccccc4CO)C3)cs2)CC1 (stereo not shown) [I-45, 2-[3,5-Bis(difluoromethyl)-1H-pyrazol-1-yl]-1-[4-(4-{5-[2-(hydroxymethyl)phenyl]-4,5-dihydro-1,2-oxazol-3-yl}-1,3-thiazol-2-yl)piperidin-1-yl]ethanone] | – | 2.45 | – |
| CC(C)(C)OC(=O)N1CCC(F)(c2nc(C3=NOC(c4ccccc4)C3)cs2)CC1 (stereo not shown) [X-a-1, tert-Butyl 4-fluoro-4-[4-(5-phenyl-4,5-dihydro-1,2-oxazol-3-yl)-1,3-thiazol-2-yl]piperidine-1-carboxylate] | 4.28 | – | – |
| CC(C)(C)OC(=O)N1CCC(c2nc(C3=NOC(c4ccccc4[N+](=O)[O-])C3)cs2)CC1 (stereo not shown) [X-a-6, tert-Butyl 4-{4-[5-(2-nitrophenyl)-4,5-dihydro-1,2-oxazol-3-yl]-1,3-thiazol-2-yl}piperidine-1-carboxylate] | – | – | chromatographic logP (pH 2.7, log P (pH2.7)): 4.01 |
| FC1(c2nc(C3=NOC(c4ccccc4)C3)cs2)CCNCC1 (stereo not shown) [XII-1, 4-fluoro-4-[4-(5-phenyl-4,5-dihydro-1,2-oxazol-3-yl)-1,3-thiazol-2-yl]piperidinium chloride] | 1.17 | – | – |
| CC(C)(C)OC(=O)N1CCC(c2nc(-c3cc(-c4ccccc4C=O)on3)cs2)CC1 [X-b-1, tert-butyl 4-{4-[5-(2-formylphenyl)-1,2-oxazol-3-yl]-1,3-thiazol-2-yl}piperidine-1-carboxylate] | 4.1 | – | – |
| COC(=O)c1ccccc1C1CC(c2csc(C3CCN(C(=O)Cn4nc(C(F)F)cc4C(F)F)CC3)n2)=NO1 (stereo not shown) [I-43, Methyl 2-{3-[2-(1-{[3,5-bis(difluoromethyl)-1H-pyrazol-1-yl]acetyl}piperidin-4-yl)-1,3-thiazol-4-yl]-4,5-dihydro-1,2-oxazol-5-yl}benzoate] | – | 3.32 | – |
| C#Cc1ccccc1C1CC(c2csc(C3CCN(C(=O)Cn4nc(C(F)F)cc4C(F)F)CC3)n2)=NO1 (stereo not shown) [I-38, 2-[3,5-Bis(difluoromethyl)-1H-pyrazol-1-yl]-1-(4-{4-[5-(2-ethynylphenyl)-4,5-dihydro-1,2-oxazol-3-yl]-1,3-thiazol-2-yl}piperidin-1-yl)ethanone] | – | 3.36 | – |
| O=Cc1cccc(F)c1C1CC(c2csc(C3CCN(C(=O)Cn4nc(C(F)F)cc4C(F)F)CC3)n2)=NO1 (stereo not shown) [I-17, 2-{3-[2-(1-{[3,5-Bis(difluoromethyl)-1H-pyrazol-1-yl]acetyl}piperidin-4-yl)-1,3-thiazol-4-yl]-4,5-dihydro-1,2-oxazol-5-yl}-3-fluorobenzaldehyde] | – | 2.92 | chromatographic logP (pH 7.8, logp [c]): 2.82 |
| CC(C)(C)OC(=O)N1CCC(c2nc(C3=NOC(c4ccccc4C(=O)O)C3)cs2)CC1 (stereo not shown) [X-a-9, 2-(3-{2-[1-(tert-butoxycarbonyl)piperidin-4-yl]-1,3-thiazol-4-yl}-4,5-dihydro-1,2-oxazol-5-yl)benzoic acid] | 3.18 | – | – |
